This is an account of results in paper PMC6009973 (Journal of Enzyme Inhibition and Medicinal Chemistry, 2017).

Molecules are shown by their SMILES.

T1 sequence (A0A0H2YPC2 1-190): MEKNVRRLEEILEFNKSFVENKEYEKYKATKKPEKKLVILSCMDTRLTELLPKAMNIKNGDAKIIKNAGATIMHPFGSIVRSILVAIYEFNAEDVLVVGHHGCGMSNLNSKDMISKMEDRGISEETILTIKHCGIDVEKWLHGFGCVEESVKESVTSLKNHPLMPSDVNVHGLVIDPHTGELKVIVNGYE

The assay has as its target T1, CpeCA (Clostridium perfringens, UniProt A0A0H2YPC2).
T1 construct: gene CPF_0414
The note with it: read-out: CpeCA^bβ; CO2 1.7-17 mM, 20 mM TRIS pH 8.3, 20 mM Na2SO4, 15 min pre-incubation at room temperature; errors 5-10%.
As for `CCN[C@H]1CN(CCCOC)S(=O)(=O)c2sc(S(N)(=O)=O)cc21` [BRZ, brinzolamide], the Ki amounted to 121 nM.
In the case of `NS(=O)(=O)c1nnc(NS(=O)(=O)c2ccccc2)s1` [BZA, benzolamide] it was 497 nM; in that of `Cc1ccc(-c2cc(C(F)(F)F)nn2-c2ccc(S(N)(=O)=O)cc2)cc1` [CLX, celecoxib], 312 nM; in that of `NS(=O)(=O)c1cc(Cl)c(Cl)c(S(N)(=O)=O)c1` [DCP, dichlorophenamide], 68 nM.
Then `NS(=O)(=O)c1cc2c(cc1Cl)NCNS2(=O)=O` [HCT, hydrochlorothiazide], with 219 nM; and `NS(=O)(=O)c1ccc(S(=O)(=O)Nc2cccc3c(Cl)c[nH]c23)cc1` [IND, indisulam], with 173 nM; and `CC(=O)N=c1sc(S(N)(=O)=O)nn1C` [MZA, methazolamide], with 113 nM.
Then `O=C1NS(=O)(=O)c2ccccc21` [SAC, saccharin], with more than 100000 nM; and `CCN1CCCC1CNC(=O)c1cc(S(N)(=O)=O)ccc1OC` (centres unmarked) [SLP, sulpiride], with 389 nM; and `NS(=O)(=O)c1ccc(N2CCCCS2(=O)=O)cc1` [SLT, sulthiame], with 63.1 nM.
Consider `CC1(C)O[C@@H]2[C@@H](CO[C@@]3(COS(N)(=O)=O)OC(C)(C)O[C@@H]23)O1` [TPM, topiramate], for which the Ki was found to be 204 nM.
Consider `Cc1onc(-c2ccccc2)c1-c1ccc(S(N)(=O)=O)cc1` [VLX, valdecoxib], for which the Ki stood at 160 nM.
Then `NS(=O)(=O)Cc1noc2ccccc12` [ZNS, zonisamide], with more than 100000 nM; and `NS(=O)(=O)c1ccc(CCNS(=O)(=O)c2ccc([N+](=O)[O-])cc2CO)cc1` [compound 24, 4-(2-hydroxymethyl-4-nitrophenyl-sulphonamido)ethylbenzenesulphonamide], with 51.2 nM.
